Measurements taken from US9150569B2, “Nitrogen-containing heterocyclic compound having inhibitory effect on production of kynurenine” (KYOWA HAKKO KIRIN CO., LTD., priority 2010, dated 2015).

The molecules below were run on production of kynurenine in KATO-III cells (assay: Inhibitory activity on the production of kynurenine (IFN-γ-treated KATO-III cells, kynurenine in the culture medium quantified by absorbance at 480 nm)). Details: test compound at 10 μmol/L, human gastric cancer cell line KATO-III, 96 hours, read-out: inhibition rate (production of kynurenine).
Assay type: cell-based
Experimental: This assay was performed by a modification of the method described in J. Biol. Chem., vol. 263, pp. 2041-2048 (1988). For culture of the human gastric cancer cell line KATO-III, RPMI 1640 (GIBCO, 11875) supplemented with 10 volt FBS (GIBCO, 10091-148, lot. 665285) was used. One μL of a test substance in a DMSO solution was diluted with 199 μL of the culture medium and placed in wells of a 384-well plate (10 μL/well). Next, IFN-γ (Sigma, 1-3265) was added to the culture medium to a concentration of 31.25 ng/mL, and KATO-III cells were suspended at 50,000 cells/mL in the culture medium. Forty μL of the suspension was added to each well (2,000 cells/well) and incubated under a 5% CO2 atmosphere at 37° C. for 96 hours. The final concentration of DMSO was limited to 0.1 volt or less so that DMSO itself may not affect the kynurenine concentration measured by this assay. After the incubation, 10 μL of a 30 w/vt aqueous trichloroacetic acid solution was added to each well, and incubation was performed at 65° C. for 30 minutes. The plate was centrifuged at 2,500×g for 5 minutes and 15μL of the supernatant in each well was transferred into another 384-well plate. To the transferred supernatant, 15 μL of a 2 w/vt solution of p-dimethylaminobenzaldehyde in acetic acid was added, incubation was performed at 65° C. for 20 minutes and the absorbance was measured at 480 nm.
Sample: the absorbance value of the well to which a DMSO solution containing a test substance was added and in which the cells were treated with IFN-γ.
Blank: the absorbance value of the well to which DMSO not containing a test substance was added and in which the cells were treated with IFN-γ.
Control: the absorbance value of the well to which DMSO not containing a test substance was added and in which the cells were not treated with IFN-γ.
In this assay, expression of IDO in KATO-III cells is induced by IFN-γ treatment and kynurenine in the culture medium is quantified. The kynurenine concentration in a culture medium is known to increase in proportion to the enzymatic activity of intracellular IDO (for example, J. Biol. Chem., vol. 263, pp. 2041-2048 ([…])). […] The production of kynurenine is known to be inhibited by IDO inhibitors (for example, J. Clin. Invest., vol. 117, No. 5, pp. 1147-1154 […]), and thus it is speculated that Compounds (I) also have an inhibitory effect on IDO.

Structure (SMILES) | inhibition at 10 µM
CCCCS(=O)(=O)Nc1nc2ccccc2nc1OC(c1ccncc1)C(F)(F)F (centres unmarked) [Compound 46, N-(3-(2,2,2-trifluoro-1-(pyridin-4-yl)ethoxy)quinoxalin-2-yl)butane-1-sulfonamide] | ≥ 80%
CCCCS(=O)(=O)Nc1nc2ccccc2nc1OC(c1cc[n+]([O-])cc1)C(F)(F)F (centres unmarked) [Compound 47, 4-(1-(3-(butylsulfonamido)quinoxalin-2-yloxy)-2,2,2-trifluoroethyl)pyridine 1-oxide] | ≥ 80%
CCCS(=O)(=O)Nc1nc2ccccc2nc1OC(c1ccc2c(c1)OCCO2)C(F)(F)F (centres unmarked) [Compound 48, N-(3-(1-(2,3-dihydrobenzo[b][1,4]dioxin-6-yl)-2,2,2-trifluoroethoxy)quinoxalin-2-yl)propane-1-sulfonamide] | ≥ 80%
CCCS(=O)(=O)Nc1nc2ccccc2nc1OC(c1ccnc(N(C)C(C)=O)c1)C(F)(F)F (centres unmarked) [Compound 49, N-methyl-N-(4-(2,2,2-trifluoro-1-(3-(propylsulfonamido)quinoxalin-2-yloxy)ethyl)pyridin-2-yl)acetamide] | ≥ 80%
O=S(=O)(CC1CC1)Nc1nc2ccccc2nc1OC(c1ccncc1)C(F)(F)F (centres unmarked) [Compound 50, 1-cyclopropyl-N-(3-(2,2,2-trifluoro-1-(pyridin-4-yl)ethoxy)quinoxalin-2-yl)methanesulfonamide] | ≥ 80%
CC(C)CS(=O)(=O)Nc1nc2ccccc2nc1OC(c1ccncc1)C(F)(F)F (centres unmarked) [Compound 51, 2-methyl-N-(3-(2,2,2-trifluoro-1-(pyridin-4-yl)ethoxy)quinoxalin-2-yl)propane-1-sulfonamide] | ≥ 80%
CCCCS(=O)(=O)Nc1nc2ccccc2nc1OC(c1ccnc(C#N)c1)C(F)(F)F (centres unmarked) [Compound 52, N-(3-(1-(2-cyanopyridin-4-yl)-2,2,2-trifluoroethoxy)quinoxalin-2-yl)butane-1-sulfonamide] | ≥ 80%
CCCS(=O)(=O)Nc1nc2ccccc2nc1OC(c1ccn2cc(C)nc2c1)C(F)(F)F (centres unmarked) [Compound 53, N-(3-(2,2,2-trifluoro-1-(2-methylimidazo[1,2-a]pyridin-7-yl)ethoxy)quinoxalin-2-yl)propane-1-sulfonamide] | ≥ 80%
CCCS(=O)(=O)Nc1nc2ccccc2nc1OC(c1ccnc(-n2ccnc2)c1)C(F)(F)F (centres unmarked) [Compound 54, N-(3-(1-(2-(1H-imidazol-1-yl)pyridin-4-yl)-2,2,2-trifluoroethoxy)quinoxalin-2-yl)propane-1-sulfonamide] | ≥ 80%
CCCS(=O)(=O)Nc1nc2ccccc2nc1OC(c1cnc(SC)nc1)C(F)(F)F (centres unmarked) [Compound 55, N-(3-(2,2,2-trifluoro-1-(2-(methylthio)pyrimidin-5-yl)ethoxy)quinoxalin-2-yl)propane-1-sulfonamide] | ≥ 80%
CCCS(=O)(=O)Nc1nc2ccccc2nc1OC(c1ccc(-c2cnn(C)n2)nc1)C(F)(F)F (centres unmarked) [Compound 64A, N-(3-(2,2,2-trifluoro-1-(6-(2-methyl-2H-1,2,3-triazol-4-yl)pyridin-3-yl)ethoxy)quinoxalin-2-yl)propane-1-sulfonamide] | ≥ 80%
CCCS(=O)(=O)Nc1nc2ccccc2nc1OC(c1ccc(-c2cnco2)nc1)C(F)(F)F (centres unmarked) [Compound 65, N-(3-(2,2,2-trifluoro-1-(6-(oxazol-5-yl)pyridin-3-yl)ethoxy)quinoxalin-2-yl)propane-1-sulfonamide] | ≥ 80%
CCCS(=O)(=O)Nc1nc2ccccc2nc1OC(c1ccc(-c2noc(C)n2)nc1)C(F)(F)F (centres unmarked) [Compound 66, N-(3-(2,2,2-trifluoro-1-(6-(5-methyl-1,2,4-oxadiazol-3-yl)pyridin-3-yl)ethoxy)quinoxalin-2-yl)propane-1-sulfonamide] | ≥ 80%
COCCS(=O)(=O)Nc1nc2ccccc2nc1OC(c1ccc(-c2ccnn2C)nc1)C(F)(F)F (centres unmarked) [Compound 67, 2-methoxy-N-(3-(2,2,2-trifluoro-1-(6-(1-methyl-1H-pyrazol-5-yl)pyridin-3-yl)ethoxy)quinoxalin-2-yl)ethanesulfonamide] | ≥ 80%
